Measured values: PubChem BioAssay AID1918940 (Molecular Pharmacology Branch, DTP, NCI, 2023)

Tested on: NCI-H211 complex spheroid viability
Experiment: Anticancer human tumor NCI-H211 cell line growth inhibition [LSD1];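 further: luminescent viability read after seven days of drug exposure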;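 on viability, T/C: 100% = DMSO vehicle control viability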
Conditions: for IC50: curve of first compound; for viability, T/C: stronger effect = lower value
How it was run: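 Drug combinations with the LSD1 inhibitor iadademstat tested on tumor cells co-cultured as spheroids with endothelial cells and mesenchymal stem cells. Concentrations descended in half-log increments from clinical Cmax or 10 microM.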

[1] = second compound 0.1 µM, first compound 0.0316 µM
[2] = second compound 0.1 µM, first compound 0.1 µM
[3] = second compound 0.1 µM, first compound 0.316 µM
[4] = second compound 0.1 µM, first compound 1 µM
[5] = second compound 0.1 µM, first compound 3.16 µM
[6] = second compound 0.1 µM, first compound 10 µM
[7] = second compound 0.316 µM, first compound 0.0316 µM
[8] = second compound 0.316 µM, first compound 0.1 µM
[9] = second compound 0.316 µM, first compound 0.316 µM
[10] = second compound 0.316 µM, first compound 1 µM
[11] = second compound 0.316 µM, first compound 3.16 µM
[12] = second compound 0.316 µM, first compound 10 µM
[13] = second compound 1 µM, first compound 0.0316 µM
[14] = second compound 1 µM, first compound 0.1 µM
[15] = second compound 1 µM, first compound 0.316 µM
[16] = second compound 1 µM, first compound 1 µM
[17] = second compound 1 µM, first compound 3.16 µM
[18] = second compound 1 µM, first compound 10 µM
[19] = second compound 3.16 µM, first compound 0.0316 µM
[20] = second compound 3.16 µM, first compound 0.1 µM
[21] = second compound 3.16 µM, first compound 0.316 µM
[22] = second compound 3.16 µM, first compound 1 µM
[23] = second compound 3.16 µM, first compound 3.16 µM
[24] = second compound 3.16 µM, first compound 10 µM
[25] = second compound 10 µM, first compound 0.0316 µM
[26] = second compound 10 µM, first compound 0.1 µM
[27] = second compound 10 µM, first compound 0.316 µM
[28] = second compound 10 µM, first compound 1 µM
[29] = second compound 10 µM, first compound 3.16 µM
[30] = second compound 10 µM, first compound 10 µM

Compound	IC50 (second compound 0.1 µM)	IC50 (second compound 0.316 µM)	IC50 (second compound 1 µM)	IC50 (second compound 3.16 µM)	IC50 (second compound 10 µM)	viability, T/C [1]	viability, T/C [2]	viability, T/C [3]	viability, T/C [4]	viability, T/C [7]	viability, T/C [8]	viability, T/C [9]	viability, T/C [10]	viability, T/C [13]	viability, T/C [14]	viability, T/C [15]	viability, T/C [16]	viability, T/C [19]	viability, T/C [20]	viability, T/C [21]	other results
CC(C)c1c(-c2ccccc2)nc2c(C#N)c[nH]n2c1=O + NC1CCC(NC2CC2c2ccccc2)CC1	> 10 µM	> 10 µM	> 10 µM	> 10 µM	< 0.0316 µM	74.2%	74.7%	72%	81.5%	84.8%	81.7%	72.4%	72.8%	69.9%	80.7%	77.3%	60.5%	46.6%	56%	61.6%	viability, T/C [5]: 65.8%; viability, T/C [6]: 85.8%; viability, T/C [11]: 67.2%; viability, T/C [12]: 75.5%; viability, T/C [17]: 62.3%; viability, T/C [18]: 70%; viability, T/C [22]: 65.5%; viability, T/C [23]: 62%; viability, T/C [24]: 60.5%; viability, T/C [25]: 35.2%; viability, T/C [26]: 37.4%; viability, T/C [27]: 32.7%; viability, T/C [28]: 34.9%; viability, T/C [29]: 32.2%; viability, T/C [30]: 32.8%
CC1COCCN1c1cc(-c2ccnn2C)c2ccnc(-c3ccn[nH]3)c2n1 (stereo not given) + NC1CCC(NC2CC2c2ccccc2)CC1	< 0.00316 µM	0.00354 µM	0.00326 µM	< 0.00316 µM	< 0.00316 µM	3.03%	1.88%	1.99%	1.97%	5.04%	2.3%	1.83%	2.11%	3.22%	2.14%	1.98%	2.52%	2.82%	2.03%	1.63%	viability, T/C (second compound 0.1 µM, first compound 0.00316 µM): 47%; viability, T/C (second compound 0.1 µM, first compound 0.01 µM): 15.9%; viability, T/C (second compound 0.316 µM, first compound 0.00316 µM): 54.4%; viability, T/C (second compound 0.316 µM, first compound 0.01 µM): 12.7%; viability, T/C (second compound 1 µM, first compound 0.00316 µM): 51.1%; viability, T/C (second compound 1 µM, first compound 0.01 µM): 14.4%; viability, T/C (second compound 3.16 µM, first compound 0.00316 µM): 39.7%; viability, T/C (second compound 3.16 µM, first compound 0.01 µM): 13.1%; viability, T/C [22]: 2.4%; viability, T/C (second compound 10 µM, first compound 0.00316 µM): 18.2%; viability, T/C (second compound 10 µM, first compound 0.01 µM): 3.8%; viability, T/C [25]: 1.39%; viability, T/C [26]: 1%; viability, T/C [27]: 0.87%; viability, T/C [28]: 1.21%
COc1ccc([C@@H](O)c2cc(-c3ncnc4cc(N5CCOCC5)ccc34)c(F)cc2Cl)nn1 + NC1CCC(NC2CC2c2ccccc2)CC1	3.7 µM	3.37 µM	3.48 µM	3.7 µM	< 0.0316 µM	72.7%	63%	69.5%	74.2%	66.9%	69.7%	73.2%	71.2%	69.2%	63.6%	65.3%	81.7%	73.6%	63.3%	64%	viability, T/C [5]: 55.8%; viability, T/C [6]: 13.7%; viability, T/C [11]: 52.1%; viability, T/C [12]: 12.6%; viability, T/C [17]: 53.4%; viability, T/C [18]: 11.3%; viability, T/C [22]: 81.5%; viability, T/C [23]: 56.1%; viability, T/C [24]: 11.1%; viability, T/C [25]: 36.9%; viability, T/C [26]: 36.7%; viability, T/C [27]: 36.8%; viability, T/C [28]: 54.3%; viability, T/C [29]: 49%; viability, T/C [30]: 8.03%
